In patent publication US4436751A, “Nitrobenzyl monates antibacterial compounds” (Beecham Group Limited, priority 1980, dated 1984):
Converted amounts (≈) assume the structure as drawn. Where two headings read alike, the source gives them in different places.

Key:
Assay type in all cases: cell-based
M. suipneumoniae OCD 1 = test: Anti-mycoplasmal MIC in vitro, Friis broth agarose (Table 1); conditions: Mesomycoplasma hyopneumoniae, OCD1, 144 h
M. suipneumoniae NB12 = test: as above; conditions: Mesomycoplasma hyopneumoniae
M. hyorhinis ATCC 25021 = test: as above; conditions: Mesomycoplasma hyorhinis, ATCC25021, 144 h
M. suipneumoniae Str. 11 = test: as above; conditions: Mesomycoplasma hyopneumoniae
[1] = system: M. suipneumoniae ATCC 25095; test: as above; conditions: Mesomycoplasma hyopneumoniae, ATCC25095, 144 h
M. pneumoniae ATCC 15492 = test: as above; conditions: Mycoplasmoides pneumoniae, ATCC15492, 144 h
[2] = system: Ps. aeruginosa NCTC 10662; test: Human bacteria MIC, nutrient agar with chocolated horse blood (Table 3); conditions: Pseudomonas aeruginosa
Description: (§1) The values were determined by serial dilutions in nutrient agar with 5% chocolated horse blood after incubations for 18 hours at 37° C.

Sarcina lutea 8340 = test: as above
Description: as §1

[3] = system: Strep. pyogenes R80/421-A; test: as above; conditions: Streptococcus pyogenes
Description: as §1

E. coli ESS = test: as above; conditions: Escherichia coli; E. coli ESS; nutrient agar 5% chocolated horse blood, 18 hours 37° C.; read-out: MIC
Description: as §1

E. Coli NCTC 10418 = test: as above; conditions: Escherichia coli
Description: as §1

[4] = system: Corynebacterium xerosis 9755; test: as above
Description: as §1

Strep. 2733-B = test: as above
Description: as §1

Staph. aureus Russell = test: as above; conditions: Staphylococcus aureus; Staph. aureus Russell; nutrient agar 5% chocolated horse blood, 18 hours 37° C.; read-out: MIC
Description: as §1

Strep. faecalis 1 = test: as above
Description: as §1

Bacillus subtilis 6633 = test: as above
Description: as §1

Staph. aureus Oxford = test: as above; conditions: Staphylococcus aureus; Staph. aureus Oxford; nutrient agar 5% chocolated horse blood, 18 hours 37° C.; read-out: MIC
Description: as §1

[5] = system: Haemophilus influenzae Q1; test: as above
Description: as §1

[6] = system: Pasteurella multocida 1633; test: as above; conditions: Pasteurella multocida 1633; nutrient agar 5% chocolated horse blood, 18 hours 37° C.; read-out: MIC
Description: as §1

[7] = system: Neisseria catarrhalis 1502; test: as above
Description: as §1

Staph. aureus W2827 = test: as above; conditions: Staphylococcus aureus; Staph. aureus W2827; nutrient agar 5% chocolated horse blood, 18 hours 37° C.; read-out: MIC
Description: as §1

P. mirabilis 889 = test: as above
Description: as §1

K. aerogenes A = test: as above; conditions: Klebsiella aerogenes
Description: as §1

[8] = system: M. suipneumoniae PW/C/210; test: Anti-mycoplasmal MIC in vitro, Friis broth agarose (Table 1); conditions: Mesomycoplasma hyopneumoniae, 144 h
[9] = system: M. hyosynoviae ATOC 25591; test: as above; conditions: 144 h
M. suipneumoniae HR(2) = test: as above; conditions: Mesomycoplasma hyopneumoniae, 144 h
M. suipneumoniae MS 16 = test: as above; conditions: Mesomycoplasma hyopneumoniae, MS16, 144 h
[10] = M. pneumoniae ATCC 15492, in vitro, 6 days 37° C., read-out: MIC
[11] = Haemophilus influenzae, Q1, 18 h
[12] = Neisseria catarrhalis 1502, nutrient agar 5% chocolated horse blood, 18 hours 37° C., read-out: MIC
[13] = M. suipneumoniae OCD 1, in vitro, 6 days 37° C., read-out: MIC
[14] = 144 h, M. suipneumoniae NB12, in vitro, 6 days 37° C., read-out: MIC
[15] = M. hyorhinis ATCC 25021, in vitro, 6 days 37° C., read-out: MIC
[16] = 144 h, M. suipneumoniae Str. 11, in vitro, 6 days 37° C., read-out: MIC
[17] = NCTC10662, Ps. aeruginosa NCTC 10662, nutrient agar 5% chocolated horse blood, 18 hours 37° C., read-out: MIC
[18] = Micrococcus luteus, Sarcina lutea 8340, nutrient agar 5% chocolated horse blood, 18 hours 37° C., read-out: MIC
[19] = NCTC10418, E. coli NCTC 10418, nutrient agar 5% chocolated horse blood, 18 hours 37° C., read-out: MIC
[20] = Corynebacterium xerosis 9755, nutrient agar 5% chocolated horse blood, 18 hours 37° C., read-out: MIC
[21] = Enterococcus faecalis, Strep. faecalis 1, nutrient agar 5% chocolated horse blood, 18 hours 37° C., read-out: MIC
[22] = Proteus mirabilis, P. mirabilis 889, nutrient agar 5% chocolated horse blood, 18 hours 37° C., read-out: MIC
[23] = K. aerogenes A, nutrient agar 5% chocolated horse blood, 18 hours 37° C., read-out: MIC
[24] = M. suipneumoniae PW/C/210, in vitro, 6 days 37° C., read-out: MIC
[25] = M. hyosynoviae ATOC 25591, in vitro, 6 days 37° C., read-out: MIC
[26] = M. suipneumoniae HR(2), in vitro, 6 days 37° C., read-out: MIC
[27] = M. suipneumoniae MS 16, in vitro, 6 days 37° C., read-out: MIC

Structure (SMILES)	MIC [1]	MIC (M. pneumoniae ATCC 15492; [10])	MIC ([3]; R80/421A, 18 h)	MIC (E. coli ESS)	MIC (Staph. aureus Russell)	MIC (Bacillus subtilis 6633; Bacillus subtilis, 6633, 18 h)	MIC (Staph. aureus Oxford)	MIC [5, 11]	MIC [6]	MIC [7, 12]	MIC (Staph. aureus W2827)	MIC (M. suipneumoniae OCD 1; [13])	MIC (M. suipneumoniae NB12; [14])	MIC (M. hyorhinis ATCC 25021; [15])	MIC (M. suipneumoniae Str. 11; [16])	MIC [2, 17]	MIC (Sarcina lutea 8340; [18])	MIC (E. Coli NCTC 10418; [19])	MIC [4, 20]	MIC (Strep. faecalis 1; [21])	also measured
C/C(=C\C(=O)OCc1ccccc1[N+](=O)[O-])CC1OCC(CC2OC2C(C)C(C)O)C(O)C1O (centres unmarked) [C, O--nitrobenzyl monate A, reference compound]	0.25 µg/mL (≈ 0.521 µM)	5 µg/mL (≈ 10.4 µM)	0.5 µg/mL (≈ 1.04 µM)	2.5 µg/mL (≈ 5.21 µM)	2.5 µg/mL (≈ 5.21 µM)	2.5 µg/mL (≈ 5.21 µM)	2.5 µg/mL (≈ 5.21 µM)	0.5 µg/mL (≈ 1.04 µM)	2.5 µg/mL (≈ 5.21 µM)	1 µg/mL (≈ 2.09 µM)	5 µg/mL (≈ 10.4 µM)										MIC (M. suipneumoniae OCD 1): 0.5 µg/mL (≈ 1.04 µM); MIC (M. suipneumoniae NB12; NB12, 144 h): 0.5 µg/mL (≈ 1.04 µM); MIC (M. hyorhinis ATCC 25021): 0.25 µg/mL (≈ 0.521 µM); MIC (M. suipneumoniae Str. 11; STR.11, 144 h): 0.25 µg/mL (≈ 0.521 µM); MIC ([2]; NCTC10662, 18 h): > 100 µg/mL; MIC (Sarcina lutea 8340; Micrococcus luteus, 8340, 18 h): > 100 µg/mL; MIC (E. Coli NCTC 10418; NCTC10418, 18 h): > 100 µg/mL; MIC ([4]; Corynebacterium xerosis, 9755, 18 h): > 100 µg/mL; MIC (Strep. 2733-B; 18 h): 2.5 µg/mL (≈ 5.21 µM); MIC (Strep. faecalis 1; Enterococcus faecalis, 1, 18 h): > 100 µg/mL; MIC (P. mirabilis 889; Proteus mirabilis, 889, 18 h): > 100 µg/mL; MIC (K. aerogenes A; 18 h): > 100 µg/mL; MIC [8]: 0.25 µg/mL (≈ 0.521 µM); MIC [9]: 0.25 µg/mL (≈ 0.521 µM); MIC (M. suipneumoniae HR(2)): 0.5 µg/mL (≈ 1.04 µM); MIC (M. suipneumoniae MS 16): 0.25 µg/mL (≈ 0.521 µM)
C/C(=C\C(=O)OCc1cccc([N+](=O)[O-])c1)CC1OCC(CC2OC2C(C)C(C)O)C(O)C1O (centres unmarked) [Example 2, m-nitrobenzyl monate A]	0.025 µg/mL (≈ 0.0521 µM)	1 µg/mL (≈ 2.09 µM)		5 µg/mL (≈ 10.4 µM)	10 µg/mL (≈ 20.9 µM)		10 µg/mL (≈ 20.9 µM)		10 µg/mL (≈ 20.9 µM)	2.5 µg/mL (≈ 5.21 µM)	25 µg/mL (≈ 52.1 µM)	0.025 µg/mL (≈ 0.0521 µM)	0.025 µg/mL (≈ 0.0521 µM)	≤ 0.01 µg/mL	0.025 µg/mL (≈ 0.0521 µM)	> 100 µg/mL	> 100 µg/mL	> 100 µg/mL	> 100 µg/mL	> 100 µg/mL	MIC ([3]; Strep. pyogenes R80/421-A, nutrient agar 5% chocolated horse blood, 18 hours 37° C., read-out: MIC): 2.5 µg/mL (≈ 5.21 µM); MIC (Strep. 2733-B; Strep. 2733-B, nutrient agar 5% chocolated horse blood, 18 hours 37° C., read-out: MIC): 10 µg/mL (≈ 20.9 µM); MIC (Bacillus subtilis 6633; Bacillus subtilis 6633, nutrient agar 5% chocolated horse blood, 18 hours 37° C., read-out: MIC): 5 µg/mL (≈ 10.4 µM); MIC ([5]; Haemophilus influenzae Q1, nutrient agar 5% chocolated horse blood, 18 hours 37° C., read-out: MIC): 2.5 µg/mL (≈ 5.21 µM); MIC (P. mirabilis 889; [22]): > 100 µg/mL; MIC (K. aerogenes A; [23]): > 100 µg/mL; MIC [8, 24]: ≤ 0.01 µg/mL; MIC [9, 25]: 0.025 µg/mL (≈ 0.0521 µM); MIC (M. suipneumoniae HR(2); [26]): 0.025 µg/mL (≈ 0.0521 µM); MIC (M. suipneumoniae MS 16; [27]): ≤ 0.01 µg/mL
C/C(=C\C(=O)OC(C)c1cccc([N+](=O)[O-])c1)CC1OCC(CC2OC2C(C)C(C)O)C(O)C1O (centres unmarked) [Example 3, 1-(m-nitrophenyl)ethyl monate A]			1 µg/mL (≈ 2.03 µM)	10 µg/mL (≈ 20.3 µM)	2.5 µg/mL (≈ 5.07 µM)	1 µg/mL (≈ 2.03 µM)	2.5 µg/mL (≈ 5.07 µM)	1 µg/mL (≈ 2.03 µM)	25 µg/mL (≈ 50.7 µM)		5 µg/mL (≈ 10.1 µM)	0.25 µg/mL (≈ 0.507 µM)	0.25 µg/mL (≈ 0.507 µM)	0.1 µg/mL (≈ 0.203 µM)	0.1 µg/mL (≈ 0.203 µM)	> 100 µg/mL	> 100 µg/mL	> 100 µg/mL	> 100 µg/mL	> 100 µg/mL	MIC ([1]; M. suipneumoniae ATCC 25095, in vitro, 6 days 37° C., read-out: MIC): 0.1 µg/mL (≈ 0.203 µM); MIC (M. pneumoniae ATCC 15492): 5 µg/mL (≈ 10.1 µM); MIC ([7]; Neisseria, 1502, 18 h): 1 µg/mL (≈ 2.03 µM); MIC (P. mirabilis 889; [22]): > 100 µg/mL; MIC (K. aerogenes A; [23]): > 100 µg/mL; MIC [8, 24]: 0.1 µg/mL (≈ 0.203 µM); MIC [9, 25]: 0.25 µg/mL (≈ 0.507 µM); MIC (M. suipneumoniae HR(2); [26]): 0.25 µg/mL (≈ 0.507 µM); MIC (M. suipneumoniae MS 16; [27]): 0.1 µg/mL (≈ 0.203 µM)
